The series in a line: Toxicity against Artemia salina. The format is organism-based. To be noted: in vivo, read-out: LD50 (the source's name).

Converted amounts (≈) assume the structure as drawn.

For `CC1=C(O)/C(=C/[C@H](C)CCC/C(C)=C/CCc2coc(Cc3ccoc3)c2)OC1=O` [IRCININ 1], the LC50 is 2.4 µg/mL (≈ 5.85 µM).

`C/C(=C\CCc1coc(Cc2ccoc2)c1)CCCC(C)CC(=O)C(O)C(C)Cl` (centres undefined): the LC50 turned out to be 8.2 µg/mL (≈ 19.5 µM).

On to `CC1=C(O)/C(=C/[C@H](C)CC/C=C(/C)CCCc2coc(Cc3ccoc3)c2)OC1=O` [IRCININ 2], for which the LC50 is 2.7 µg/mL (≈ 6.58 µM).

As for `C/C(=C/CCC(C)CC(=O)C(O)C(C)Cl)CCCc1coc(Cc2ccoc2)c1` (centres undefined), the LC50 was found to be 8.6 µg/mL (≈ 20.4 µM).

These data come from ChEMBL document CHEMBL1158926, “Norsesterterpenes from the North Adriatic Sponge Ircinia oros” (J Nat Prod, 1990).
